Measured values reported in US7758851B2, “Preservative systems and their use in cosmetic preparations” (Laboratorios Miret, S.A., priority 2001, dated 2010).

Test system: Aerobes
Experiment: Antimicrobial Effectiveness Testing (USP 24) of preserved cosmetic formulations, count of aerobes
Type: cell-based
Details: Example 1, oil in water emulsion with non-ionic surfactant; 0 hours
Source text: (§1) Procedure to Evaluate the Efficacv of the Preservative System
(§2) This assay consists on the contamination of the formulations to be protected with a mixed inoculum of 10^8 cfu/ml concentration, in each of the micro-organisms, and see the variation of the viable cells in time. This mixed inoculum is composed of the following micro-organisms:
(§3) The cosmetic composition which is the subject of the investigation is divided into containers with 50 g of product for each flask. Each container is inoculated with 0.5 ml of the inoculum (10^8 cfu/ml). The target concentration is 10^6 cfu/mL, approximately. All the containers are kept at a temperature between 20-25° C. and are protected against light.
(§4) The level of the microbial contamination is determined at 0 hours and after 7 days, 14 days and 28 days. The number of colonies is determined by dilution in buffer peptone with the appropriate neutraliser agent of the preservative. The culture media used for counting the micro-organisms were: Soya triptone agar (35-37° C., 48 hours) for the determination of bacteria; and Sabouraud agar with chloramphenicol for fungi and yeast (25° C., 3-5 days).
(§5) According to Antimicrobial Effectiveness Testing USP 24th Edition, 1999 (pp. 1809-1811), an antimicrobial preservative is considered to be effective in topically used products made with aqueous bases or vehicles, non-sterile nasal products and emulsions, including those applied to mucous membranes, if: • not less than 2,0 logarithm reduction from the initial calculated bacteria's count at 14 days is reached and no increase from the 14 days' count is detected after 28 days; and • no increase from the initial calculated count of yeast and moulds is observed.

SMILES | Aerobes, Initial
OCCOc1ccccc1 [compound 5] | 2.3 · 10^6
CCCCCCCCCCCC(=O)NC(CCCNC(=N)N)C(=O)OCC.Cl (stereo not drawn) [compound 1] | 1.1 · 10^6

Same assay, conditions: Example 1, oil in water emulsion with non-ionic surfactant; 7 days

SMILES | Aerobes, 7 days
OCCOc1ccccc1 [compound 5] | 1.8 · 10^3
CCCCCCCCCCCC(=O)NC(CCCNC(=N)N)C(=O)OCC.Cl (stereo not drawn) [compound 1] | 3.1 · 10^3

Same assay, conditions: Example 1, oil in water emulsion with non-ionic surfactant; 14 days

SMILES | Aerobes, 14 days
OCCOc1ccccc1 [compound 5] | 6.2 · 10^2
CCCCCCCCCCCC(=O)NC(CCCNC(=N)N)C(=O)OCC.Cl (stereo not drawn) [compound 1] | 3.3 · 10^2

Same assay, conditions: Example 2, oil in water emulsion with ionic emulsifier; 0 hours

SMILES | Aerobes, Initial
OCCOc1ccccc1 [compound 5] | 2.7 · 10^6
CCCCCCCCCCCC(=O)NC(CCCNC(=N)N)C(=O)OCC.Cl (stereo not drawn) [compound 1] | 2.7 · 10^6

Same assay, conditions: Example 2, oil in water emulsion with ionic emulsifier; 7 days

SMILES | Aerobes, 7 days
OCCOc1ccccc1 [compound 5] | 1.8 · 10^4
CCCCCCCCCCCC(=O)NC(CCCNC(=N)N)C(=O)OCC.Cl (stereo not drawn) [compound 1] | 1.6 · 10^4

Same assay, conditions: Example 2, oil in water emulsion with ionic emulsifier; 14 days

SMILES | Aerobes, 14 days
OCCOc1ccccc1 [compound 5] | 1.8 · 10^3
CCCCCCCCCCCC(=O)NC(CCCNC(=N)N)C(=O)OCC.Cl (stereo not drawn) [compound 1] | 6.5 · 10^2

Same assay, conditions: Example 3, water in oil emulsion with non-ionic emulsifier; 0 hours

SMILES | Aerobes, Initial
OCCOc1ccccc1 [compound 5] | 4.8 · 10^6
CCCCCCCCCCCC(=O)NC(CCCNC(=N)N)C(=O)OCC.Cl (stereo not drawn) [compound 1] | 6.2 · 10^6

Same assay, conditions: Example 3, water in oil emulsion with non-ionic emulsifier; 7 days

SMILES | Aerobes, 7 days
OCCOc1ccccc1 [compound 5] | 3.9 · 10^3
CCCCCCCCCCCC(=O)NC(CCCNC(=N)N)C(=O)OCC.Cl (stereo not drawn) [compound 1] | 1.8 · 10^3

Same assay, conditions: Example 3, water in oil emulsion with non-ionic emulsifier; 14 days

SMILES | Aerobes, 14 days
OCCOc1ccccc1 [compound 5] | 1.9 · 10^3
CCCCCCCCCCCC(=O)NC(CCCNC(=N)N)C(=O)OCC.Cl (stereo not drawn) [compound 1] | <9.9 · 10^1

Test system: Yeast
Experiment: Antimicrobial Effectiveness Testing (USP 24) of preserved cosmetic formulations, count of yeast
Type: cell-based, Candida albicans ATCC 10231
Details: Example 1, oil in water emulsion with non-ionic surfactant; 0 hours
Source text: as §1, §2, §3, §4, §5

SMILES | Yeast, Initial
OCCOc1ccccc1 [compound 5] | 3.4 · 10^4
CCCCCCCCCCCC(=O)NC(CCCNC(=N)N)C(=O)OCC.Cl (stereo not drawn) [compound 1] | 5.6 · 10^4

Same assay, conditions: Example 1, oil in water emulsion with non-ionic surfactant; 7 days

SMILES | Yeast, 7 days
OCCOc1ccccc1 [compound 5] | 1.6 · 10^2
CCCCCCCCCCCC(=O)NC(CCCNC(=N)N)C(=O)OCC.Cl (stereo not drawn) [compound 1] | 9.5 · 10^2

Same assay, conditions: Example 1, oil in water emulsion with non-ionic surfactant; 14 days

SMILES | Yeast, 14 days
OCCOc1ccccc1 [compound 5] | <9.9 · 10^1
CCCCCCCCCCCC(=O)NC(CCCNC(=N)N)C(=O)OCC.Cl (stereo not drawn) [compound 1] | 4.0 · 10^2

Same assay, conditions: Example 2, oil in water emulsion with ionic emulsifier; 0 hours

SMILES | Yeast, Initial
OCCOc1ccccc1 [compound 5] | 2.3 · 10^4
CCCCCCCCCCCC(=O)NC(CCCNC(=N)N)C(=O)OCC.Cl (stereo not drawn) [compound 1] | 3.6 · 10^4

Same assay, conditions: Example 2, oil in water emulsion with ionic emulsifier; 7 days

SMILES | Yeast, 7 days
OCCOc1ccccc1 [compound 5] | 5.3 · 10^2
CCCCCCCCCCCC(=O)NC(CCCNC(=N)N)C(=O)OCC.Cl (stereo not drawn) [compound 1] | 1.0 · 10^2

Same assay, conditions: Example 2, oil in water emulsion with ionic emulsifier; 14 days

SMILES | Yeast, 14 days
OCCOc1ccccc1 [compound 5] | <9.9 · 10^1
CCCCCCCCCCCC(=O)NC(CCCNC(=N)N)C(=O)OCC.Cl (stereo not drawn) [compound 1] | 1.0 · 10^2

Same assay, conditions: Example 3, water in oil emulsion with non-ionic emulsifier; 0 hours

SMILES | Yeast, Initial
OCCOc1ccccc1 [compound 5] | 5.3 · 10^4
CCCCCCCCCCCC(=O)NC(CCCNC(=N)N)C(=O)OCC.Cl (stereo not drawn) [compound 1] | 7.0 · 10^4

Same assay, conditions: Example 3, water in oil emulsion with non-ionic emulsifier; 7 days

SMILES | Yeast, 7 days
OCCOc1ccccc1 [compound 5] | 5.3 · 10^2
CCCCCCCCCCCC(=O)NC(CCCNC(=N)N)C(=O)OCC.Cl (stereo not drawn) [compound 1] | <9.9 · 10^1

Same assay, conditions: Example 3, water in oil emulsion with non-ionic emulsifier; 14 days

SMILES | Yeast, 14 days
OCCOc1ccccc1 [compound 5] | <9.9 · 10^1
CCCCCCCCCCCC(=O)NC(CCCNC(=N)N)C(=O)OCC.Cl (stereo not drawn) [compound 1] | <9.9 · 10^1

Test system: Fungi
Experiment: Antimicrobial Effectiveness Testing (USP 24) of preserved cosmetic formulations, count of fungi
Type: cell-based, Aspergillus niger ATCC 16404
Details: Example 1, oil in water emulsion with non-ionic surfactant; 0 hours
Source text: as §1, §2, §3, §4, §5

SMILES | Fungi, Initial
OCCOc1ccccc1 [compound 5] | 1.7 · 10^5
CCCCCCCCCCCC(=O)NC(CCCNC(=N)N)C(=O)OCC.Cl (stereo not drawn) [compound 1] | 1.7 · 10^5

Same assay, conditions: Example 1, oil in water emulsion with non-ionic surfactant; 7 days

SMILES | Fungi, 7 days
OCCOc1ccccc1 [compound 5] | 1.3 · 10^3
CCCCCCCCCCCC(=O)NC(CCCNC(=N)N)C(=O)OCC.Cl (stereo not drawn) [compound 1] | 8.9 · 10^2

Same assay, conditions: Example 1, oil in water emulsion with non-ionic surfactant; 14 days

SMILES | Fungi, 14 days
OCCOc1ccccc1 [compound 5] | <9.9 · 10^1
CCCCCCCCCCCC(=O)NC(CCCNC(=N)N)C(=O)OCC.Cl (stereo not drawn) [compound 1] | <9.9 · 10^1

Same assay, conditions: Example 2, oil in water emulsion with ionic emulsifier; 0 hours

SMILES | Fungi, Initial
OCCOc1ccccc1 [compound 5] | 1.2 · 10^5
CCCCCCCCCCCC(=O)NC(CCCNC(=N)N)C(=O)OCC.Cl (stereo not drawn) [compound 1] | 1.4 · 10^5

Same assay, conditions: Example 2, oil in water emulsion with ionic emulsifier; 7 days

SMILES | Fungi, 7 days
OCCOc1ccccc1 [compound 5] | 5.5 · 10^3
CCCCCCCCCCCC(=O)NC(CCCNC(=N)N)C(=O)OCC.Cl (stereo not drawn) [compound 1] | 7.2 · 10^3

Same assay, conditions: Example 2, oil in water emulsion with ionic emulsifier; 14 days

SMILES | Fungi, 14 days
OCCOc1ccccc1 [compound 5] | 3.4 · 10^2
CCCCCCCCCCCC(=O)NC(CCCNC(=N)N)C(=O)OCC.Cl (stereo not drawn) [compound 1] | 2.8 · 10^2

Same assay, conditions: Example 3, water in oil emulsion with non-ionic emulsifier; 0 hours

SMILES | Fungi, Initial
OCCOc1ccccc1 [compound 5] | 4.2 · 10^4
CCCCCCCCCCCC(=O)NC(CCCNC(=N)N)C(=O)OCC.Cl (stereo not drawn) [compound 1] | 1.0 · 10^5

Same assay, conditions: Example 3, water in oil emulsion with non-ionic emulsifier; 7 days

SMILES | Fungi, 7 days
OCCOc1ccccc1 [compound 5] | 5.5 · 10^3
CCCCCCCCCCCC(=O)NC(CCCNC(=N)N)C(=O)OCC.Cl (stereo not drawn) [compound 1] | <9.9 · 10^1

Same assay, conditions: Example 3, water in oil emulsion with non-ionic emulsifier; 14 days

SMILES | Fungi, 14 days
OCCOc1ccccc1 [compound 5] | <9.9 · 10^1
CCCCCCCCCCCC(=O)NC(CCCNC(=N)N)C(=O)OCC.Cl (stereo not drawn) [compound 1] | <9.9 · 10^1
